Reference: article PMC11053687, “Synthesis and Pharmacological Characterization of New Photocaged Agonists for Histamine H3 and H4 Receptors” (Pharmaceuticals, 2024)
In brackets after ≈: the same amount, converted by molar mass. Read-outs that look alike come from different tables or passages of the source.

How the values were obtained:
human H4R = biological target: T1, human H4R (Homo sapiens, UniProt Q9H3N8); assay: [3H]histamine competition binding, membranes of HEK293T cells transiently expressing H4R
T1 construct: expressed in transfected cells; host or cells: HEK293T (transient, PEI); membranes
T1 sequence (Q9H3N8 whole entry): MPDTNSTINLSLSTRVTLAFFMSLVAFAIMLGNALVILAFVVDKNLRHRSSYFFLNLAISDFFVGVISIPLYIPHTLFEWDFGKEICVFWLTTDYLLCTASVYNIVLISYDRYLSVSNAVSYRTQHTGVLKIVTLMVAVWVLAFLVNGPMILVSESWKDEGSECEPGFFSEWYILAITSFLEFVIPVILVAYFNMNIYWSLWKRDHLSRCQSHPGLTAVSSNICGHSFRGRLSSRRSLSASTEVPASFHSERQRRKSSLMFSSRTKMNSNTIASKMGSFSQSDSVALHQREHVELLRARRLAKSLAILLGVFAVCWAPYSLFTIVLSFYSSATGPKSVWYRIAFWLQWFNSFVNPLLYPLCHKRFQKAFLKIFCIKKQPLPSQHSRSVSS
Procedure: (§1) Both GPCRs were transiently expressed in HEK293T cells.
(§2) Membranes were collected from HEK293T cells transiently transfected with H3R or H4R by PEI method. In brief, 2 million HEK293T cells were seeded into a 10 cm dish one day before transfection. The next day, the cells were transfected with 2.5 μg cDNA encoding H3R (GenBank accession number AF140538) or H4R (GenBank accession number AY136745) supplemented with 2.5 μg empty pcDEF3 [45] plasmid using 20 μg PEI. Two days after transfection, the transfected HEK293T cells were detached using ice-cold PBS, and the membrane pellets were subsequently collected by centrifuging at 1932× g at 4 °C for 10 min.
For competition binding assays, the tested compounds were pre-irradiated to reach the uncaged state. […] After drying for 30 min at 55 °C, the radioactivity remaining on the filters was quantified using a Microbeta Wallac Trilux scintillation counter, following the addition of scintillation liquid with a two-hour delay.
All data are shown as mean ± S.D. from three individual experiments performed in triplicate. Figures were generated and data analyzed by Prism 9. […] In FRET-EPAC assays, the ligand-induced cAMP inhibition was quantified by FRET ratios, dividing the FRET signal at 530 nm by the signal at 480 nm. […]

[1] = UV-Vis absorption in Tris-HCl buffer; type: physicochemical; conditions: Tris-HCl buffer (50 mM, pH 7.4)
Procedure: Next, the photochemical properties of the caged VUF25657 and VUF25678 were investigated. […] Based on the photochemical stability results in Figure S2, photo characterizations of VUF25657 and VUF25678 were performed under red LED light. Due to the low absorbance of immepip and 4-methylhistamine at 230 and 254 nm, a quantitative analysis method based on mass (MS) detection was employed. First, calibration curves of monitored compounds with the corresponding reference compound of the same molecular weight were built (Figure S3). Then, after illumination, the reference compounds were added to LCMS samples as internal standards. Based on the MS signal areas, the concentrations of caged compounds and parent compounds could be monitored. In Tris-HCl buffer (50 mM, pH 7.4), the absorption maximum (λmax) was determined to be 551 nm for VUF25657 (Figure 1A) and 546 nm for VUF25678 (Figure S4A). […] After 180 s of illumination, the concentration of immepip reached 0.92 μM, amounting to 29% uncaging efficiency. […]
Figure 1 Photo-uncaging followed by UV–Vis (ultraviolet-visible) and LC–MS analysis. (A) VUF25657 (3.2 μM) was illuminated under 560 nm in Tris-HCl buffer (50 mM, pH 7.4)/1% DMSO at room temperature and a UV–Vis spectrum was measured at intervals. […]
measured at intervals; (B) […] (3.2 μM) was illuminated under green LED light in Tris-HCl buffer (50 […]

[2] = Nephelometry (aqueous solubility); type: physicochemical; conditions: 50 mM Tris-HCl buffer with 1% DMSO, pH 7.4, aqueous buffer, kinetic from dmso stock, in the dark, read-out: aqueous solubility (limit)
H3R [3] = biological target: T2, H3R (Homo sapiens, UniProt Q9Y5N1); assay: cAMP inhibition by FRET-EPAC biosensor in HEK293-EPAC cells stably expressing H3R; type: cell-based; parameters: expressed in transfected cells; host or cells: HEK293 cells stably expressing EPAC-cAMP FRET biosensor and H3R; conditions: for EC50: inhibition of cAMP induced by 10 nM isoprenaline, FRET after 20 min
T2 sequence (Q9Y5N1 whole entry): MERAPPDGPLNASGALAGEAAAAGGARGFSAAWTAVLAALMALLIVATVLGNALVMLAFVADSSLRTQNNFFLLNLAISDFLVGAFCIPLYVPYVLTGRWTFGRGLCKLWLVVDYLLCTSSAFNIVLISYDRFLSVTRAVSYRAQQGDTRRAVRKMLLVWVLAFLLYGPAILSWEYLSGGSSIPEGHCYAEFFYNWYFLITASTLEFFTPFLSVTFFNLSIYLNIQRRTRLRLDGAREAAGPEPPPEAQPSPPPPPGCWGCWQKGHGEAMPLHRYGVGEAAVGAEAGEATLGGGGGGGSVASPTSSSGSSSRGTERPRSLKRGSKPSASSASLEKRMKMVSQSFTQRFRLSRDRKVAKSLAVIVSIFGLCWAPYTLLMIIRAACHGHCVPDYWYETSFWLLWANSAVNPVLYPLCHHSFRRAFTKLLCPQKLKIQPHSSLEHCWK
Procedure: H3R primarily couples to Gαi protein, which upon activation causes a decrease in intracellular cAMP levels via the inhibition of adenylate cyclase. Therefore, the HEK-EPAC cells were pre-treated with 10 nM of the beta2 adrenergic receptor (β2AR) agonist isoprenaline before H3R stimulation to enhance the basal intracellular cAMP levels via β2AR-Gαs activation. As anticipated, the H3R selective agonist immepip reduced the isoprenaline-induced cAMP accumulation, as detected by an increased FRET (fluorescence resonance energy transfer) signal in the EPAC (exchange protein directly activated by cAMP) biosensor (Figure 3A).
HEK293T cells (ATTC, CRL-1573) were cultured in DMEM supplemented with 10% FBS and 1% P/S in a humidified incubator at 37 °C with 5% CO2. The HEK293 cell line stably expressing an EPAC-cAMP FRET biosensor was kindly provided by Dr. M. Zimmermann (Interax Biotech, Basal, Switzerland). HEK293-EPAC cells stably co-expressing the H3R (GenBank accession number NM_007232.3) were generated as previously described.
EPAC-H3R cells were seeded into black 96-well plates with 50,000 cells per well one day before the experiment. The next day, the culture medium was replaced with HBSS. Subsequently, 10 nM isoprenaline (dissolved in HBSS supplemented with 20 mM thiourea) was added for 10 min incubation to elevate basal cAMP levels. Fluorescence resonance energy transfer (FRET) measurements were recorded by CLARIOstar plate reader in real-time or at 20 min after ligand stimulation.
(§3) All data are shown as mean ± S.D. from three individual experiments performed in triplicate. Figures were generated and data analyzed by Prism 9. In radioligand binding assays, the competition binding curves were fitted by ‘one-site—Fit Ki’ to obtain the equilibrium dissociation constants of unlabeled ligands (Ki) by Cheng-Prusoff equation [46]. In FRET-EPAC assays, the ligand-induced cAMP inhibition was quantified by FRET ratios, dividing the FRET signal at 530 nm by the signal at 480 nm. The response was represented as ΔFRET ratios, obtained by the analysis of ‘Fractional difference: (Value—Baseline)/Baseline’. Then the concentration–response curves were fitted using the model: ‘log(agonist) vs. response (three parameters)’ to obtain potency (pEC50).
Figure 3 Optical modulation of VUF25657-induced cAMP inhibition in EPAC-H3R cells. Real time modulation of isoprenaline-induced cAMP acumination in HEK-EPAC cells by 1 μM immepip (A). Modulation of isoprenaline-induced cAMP acumination in HEK-EPAC cells by increasing concentrations of VUF25657 (B). HEK-EPAC cells stably expressing H3R were pre-stimulated with 10 nM isoprenaline for 10 min before ligand addition. The FRET signal of the EPAC-sensor was measured after 20 min treatment of indicated ligands. VUF25657 was either kept in dark or pre-irradiated at 560 nm for 3 min to release the BODIPY cage. Data are mean ± S.D. from four independent experiments performed, each in triplicate.

H3R [4] = biological target: T2, H3R; assay: [3H]NAMH competition binding, membranes of HEK293T cells transiently expressing H3R; parameters: expressed in transfected cells; host or cells: HEK293T (transient, PEI); membranes
Procedure: as §1, §2
For competition binding assays, the tested compounds were pre-irradiated to reach the uncaged state. In brief, 0.3 mM stock of photocaged ligand (dissolved in DMSO) was divided into two samples, one of which was subsequently diluted in Tris-HCl buffer (50 mM, pH 7.4) to 3 μM and then irradiated by 560 nm to reach the uncaged state, as confirmed by LC–MS, and the other sample was kept in dark to retain its caged state. The prepared membrane pellets expressing H3R or H4R were resuspended in Tris-HCl buffer (50 mM, pH 7.4) and disrupted by 5 s sonication to make membrane suspension. Next, all the following handling was performed under near-infrared light. […] Following one hour of incubation with continuous shaking at 225 rpm at 25 °C, the reaction was terminated by transferring the mixture to GF/C filter plates that were pre-soaked with a solution containing 0.5% PEI and washed with cold Tris-HCl buffer. After drying for 30 min at 55 °C, the radioactivity remaining on the filters was quantified using a Microbeta Wallac Trilux scintillation counter, following the addition of scintillation liquid with a two-hour delay.
as §3
Figure 2 Displacement binding curves of parent, caged, and uncaged ligands for H3R (A) and H4R (B). […] Caged ligands were either kept in dark or pre-irradiated at 560 nm for 3 min for VUF25657 and 5 min for VUF25678 to achieve the uncaged state. Data shown are mean ± S.D. from three or four independent experiments, each performed in triplicate.

[5] = Photo-uncaging at 560 nm followed by LC-MS with internal standard; type: physicochemical; conditions: VUF25657 3.2 μM in Tris-HCl buffer
Procedure: Next, the photochemical properties of the caged VUF25657 and VUF25678 were investigated. […] Based on the photochemical stability results in Figure S2, photo characterizations of VUF25657 and VUF25678 were performed under red LED light. Due to the low absorbance of immepip and 4-methylhistamine at 230 and 254 nm, a quantitative analysis method based on mass (MS) detection was employed. First, calibration curves of monitored compounds with the corresponding reference compound of the same molecular weight were built (Figure S3). Then, after illumination, the reference compounds were added to LCMS samples as internal standards. Based on the MS signal areas, the concentrations of caged compounds and parent compounds could be monitored. In Tris-HCl buffer (50 mM, pH 7.4), the absorption maximum (λmax) was determined to be 551 nm for VUF25657 (Figure 1A) and 546 nm for VUF25678 (Figure S4A). […] After 180 s of illumination, the concentration of immepip reached 0.92 μM, amounting to 29% uncaging efficiency. Further illumination led to a decreased immepip concentration (for example, 0.53 μM at 20 min). One potential explanation for this could be the reaction of immepip with side products or intermediates formed during the uncaging process.
Figure 1 Photo-uncaging followed by UV–Vis (ultraviolet-visible) and LC–MS analysis. (A) VUF25657 (3.2 μM) was illuminated under 560 nm in Tris-HCl buffer (50 mM, pH 7.4)/1% DMSO at room temperature and a UV–Vis spectrum was measured at intervals. Only the 350–750 nm region is shown; (B) VUF25657 (3.2 μM) was illuminated under green LED light in Tris-HCl buffer (50 mM, pH 7.4)/1% DMSO at 37 °C and LC–MS analysis was performed at different time points using an internal standard.

H3R [6] = biological target: T2, H3R; parameters: expressed in transfected cells; host or cells: HEK293 cells stably expressing EPAC-cAMP FRET biosensor and H3R; method as in PMID 30249614; conditions: saturation binding of the radioligand to H3R; cited from earlier work
[7] = after 180 s of illumination at 560 nm

## CCC1=C(C)C2=C(COC(=O)NCCc3nc[nH]c3C)c3c(C)c(CC)c(C)n3[B-](F)(F)[N+]2=C1C [VUF25678, (2,8-Diethyl-5,5-difluoro-1,3,7,9-tetramethyl-5H-4λ^4,5λ^4-dipyrrolo [1,2-c:2′,1′-f][1,3,2]diazaborinin-10-yl)methyl (2-(5-methyl-1H-imidazol-4-yl)ethyl)carbamate]
Human H4R; caged compound vs parent 4-methylhistamine
  reduction in affinity for H4R on caging: 10–100 fold
other
  melting point: 108.8 to 116.3 °C
[1]
  absorption maximum (λmax): 546 nm
[2]
  solubility: 3.2 µM (≈ 1.55 µg/mL)

## Cc1[nH]cnc1CCN [4-methylhistamine, 2-(5-methyl-1H-imidazol-4-yl)ethan-1-amine, reference compound]
Human H4R; H4R, displacement of 4 nM [3H]histamine, pre-irradiated at 560 nm (5 min for VUF25678)
  pKi +560 nm: 7.2 ± 0.1 (3)

## c1nc(CC2CCNCC2)c[nH]1 [immepip, 4-((1H-imidazol-4-yl)methyl)piperidine, reference compound]
H3R [3]; pEC50 +560 nm, pre-irradiated at 560 nm for 3 min
  EC50: 0.0631 nM
H3R [3]; pEC50 In Dark, kept in dark
  EC50: 0.0316 nM
H3R [4]; H3R, displacement of 2 nM [3H]NAMH, compound kept in dark (caged state)
  pKi In Dark: 9.4 ± 0.2 (4)
H3R [4]; H3R, displacement of 2 nM [3H]NAMH, pre-irradiated at 560 nm (3 min for VUF25657)
  pKi +560 nm: 9.4 ± 0.3 (4)

## CCC1=C(C)C2=C(COC(=O)N3CCC(Cc4c[nH]cn4)CC3)c3c(C)c(CC)c(C)n3[B-](F)(F)[N+]2=C1C [VUF25657, (2,8-Diethyl-5,5-difluoro-1,3,7,9-tetramethyl-5H-4λ^4,5λ^4-dipyrrolo [1,2-c:2′,1′-f][1,3,2]diazaborinin-10-yl)methyl 4-((1H-imidazol-4-yl)methyl)piperidine-1-carboxylate]
H3R [3]; caged state (dark) vs parent immepip, listed as 5 (VUF25657)
  decrease in potency of cAMP inhibition compared with immepip: > 100 fold
H3R [3]; kept in dark, read-out: pEC50 In Dark (converted)
  EC50: 10 nM
H3R [3]; irradiation at 560 nm vs dark
  higher potency of cAMP inhibition after irradiation than caged state: 20 fold
[5]; [7]
  concentration of immepip released: 920 nM
  uncaging efficiency: 29%
[5]; illumination at 560 nm, at 20 min
  concentration of immepip released: 530 nM
other
  melting point: 148.7 to 150.7 °C
[1]
  absorption maximum (λmax): 551 nm
[2]
  solubility: 3.2 µM (≈ 1.68 µg/mL)
H3R [4]; H3R, displacement of 2 nM [3H]NAMH, compound kept in dark (caged state), read-out: pKi In Dark (converted)
  Ki: 50.1 nM
H3R [4]; caged state (dark) vs parent immepip
  decrease in affinity for H3R compared with immepip: 125 fold
H3R [4]; illumination at 560 nm vs dark
  increase in H3R affinity after illumination in comparison to caged state: 12 fold

## CNCCc1cnc[nH]1 [[^3H]NAMH, N-α-[methyl-^3H] histamine]
H3R [6]
  Kd: 1.37 nM
